ChEMBL document CHEMBL5154672, “Design and synthesis of HDAC inhibitors to enhance the therapeutic effect of diffuse large B-cell lymphoma by improving metabolic stability and pharmacokinetic characteristics” (Eur J Med Chem, 2022)
pIC50: −log10 of the molar value. Each block holds one compound with its values, some of them ahead of it.

Legend:
Histone deacetylase 1 = Histone deacetylase 1 (Homo sapiens, UniProt Q13547); test: Inhibition of HDAC1 (unknown origin) using RHKK(Ac)AMC fluorogenic peptide as substrate preincubated for 10 mins followed by substrate addition for 1 hr in presence of ATP by fluoroscence based assay
Histone deacetylase 1, sequence (Q13547 whole entry): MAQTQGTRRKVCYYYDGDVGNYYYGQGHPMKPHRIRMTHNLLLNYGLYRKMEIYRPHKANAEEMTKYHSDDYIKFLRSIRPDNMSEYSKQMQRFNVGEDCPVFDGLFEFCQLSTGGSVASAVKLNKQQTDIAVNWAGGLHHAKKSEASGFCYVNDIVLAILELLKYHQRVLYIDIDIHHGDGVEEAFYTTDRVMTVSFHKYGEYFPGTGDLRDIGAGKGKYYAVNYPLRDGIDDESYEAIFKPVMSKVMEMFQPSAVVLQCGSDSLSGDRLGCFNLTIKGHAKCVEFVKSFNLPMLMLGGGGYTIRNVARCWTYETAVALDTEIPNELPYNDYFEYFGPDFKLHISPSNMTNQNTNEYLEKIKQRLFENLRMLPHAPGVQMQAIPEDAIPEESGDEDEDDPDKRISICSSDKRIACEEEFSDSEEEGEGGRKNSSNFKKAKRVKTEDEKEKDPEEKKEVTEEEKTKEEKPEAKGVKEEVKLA

[1] = Metabolic stability in human liver microsomes assessed as half life measured for 75 to 130 mins by LC-MS/MS analysis; format: ADME, Microsome; conditions: time 75-130 min; for half-life: liver microsomes; for t1/2: microsomes
[2] = Metabolic stability in human liver microsomes assessed as intrinsic clearance measured for 75 to 130 mins by LC-MS/MS analysis; format: ADME, Microsome; conditions: time 75-130 min; for microsomal CLint: liver microsomes, read-out: CLH
A549 [3] = test: Antiproliferative activity against human A549 cells assessed as remaining cell activity at 2 uM incubated for 72 hrs by luminescence assay relative to control; format: functional
HCT-116 = test: Antiproliferative activity against human HCT-116 cells assessed as remaining cell activity at 2 uM incubated for 72 hrs by luminescence assay relative to control; format: functional
TMD8 [4] = test: Antiproliferative activity against human TMD8 cells assessed as remaining cell activity at 2 uM incubated for 72 hrs by luminescence assay relative to control; format: functional
MDA-MB-231 [5] = test: Antiproliferative activity against human MDA-MB-231 cells assessed as remaining cell activity at 2 uM incubated for 72 hrs by luminescence assay relative to control; format: functional
786-0 = test: Antiproliferative activity against human 786-O cells incubated for 72 hrs by luminescence assay; format: functional, cell-based; conditions: 786-0, 72 h
TMD8 [6] = test: Antiproliferative activity against human TMD8 cells incubated for 72 hrs by luminescence assay; format: functional, cell-based; conditions: TMD8, 72 h
HT-29 = test: Antiproliferative activity against human HT-29 cells incubated for 72 hrs by luminescence assay; format: functional, cell-based; conditions: HT-29, 72 h
MDA-MB-231 [7] = test: Antiproliferative activity against human MDA-MB-231 cells incubated for 72 hrs by luminescence assay; format: functional, cell-based; conditions: MDA-MB-231, 72 h
[8] = Oral bioavailability in ICR mouse at 25 mg/kg measured upto 24 hrs by LC-MS/MS analysis; format: ADME, organism-based; conditions: in vivo
[9] = AUC (0 to infinity) in ICR mouse at 2 mg/kg, iv measured upto 24 hrs by LC-MS/MS analysis; format: ADME, organism-based; parameters: time < 24 hrs, dose 2 mg/kg, route iv; conditions: in vivo
[10] = Cmax in ICR mouse at 25 mg/kg, po measured upto 24 hrs by LC-MS/MS analysis; format: ADME, organism-based; parameters: time < 24 hrs, dose 25 mg/kg, route po; conditions: in vivo
CCRF-CEM = test: Antiproliferative activity against human CCRF-CEM cells incubated for 72 hrs by luminescence assay; format: functional, cell-based
SK-OV-3 = test: Antiproliferative activity against human SK-OV-3 cells incubated for 72 hrs by luminescence assay; format: functional, cell-based; conditions: SK-OV-3, 72 h
[11] = AUC (0 to infinity) in ICR mouse at 25 mg/kg, po measured upto 24 hrs by LC-MS/MS analysis; format: ADME, organism-based; parameters: time < 24 hrs, dose 25 mg/kg, route po; conditions: in vivo
CWR22R = test: Antiproliferative activity against human 22Rv1 cells incubated for 72 hrs by luminescence assay; format: functional, cell-based; conditions: 22Rv1, 72 h
NCI-H460 = test: Antiproliferative activity against human NCI-H460 cells incubated for 72 hrs by luminescence assay; format: functional, cell-based; conditions: NCI-H460, 72 h
COLO-678 = test: Antiproliferative activity against human COLO-678 cells incubated for 72 hrs by luminescence assay; format: functional, cell-based; conditions: COLO-678, 72 h
RS4-11 = test: Antiproliferative activity against human RS4-11 cells incubated for 72 hrs by luminescence assay; format: functional, cell-based; conditions: RS4-11, 72 h
A549 [12] = test: Antiproliferative activity against human A549 cells incubated for 72 hrs by luminescence assay; format: functional, cell-based; conditions: A549, 72 h
DOHH-2 = test: Antiproliferative activity against human DOHH-2 cells incubated for 72 hrs by luminescence assay; format: functional, cell-based; conditions: DOHH-2, 72 h
HuT78 = test: Antiproliferative activity against human HuT78 cells incubated for 72 hrs by luminescence assay; format: functional, cell-based; conditions: HuT78, 72 h
[13] = MRT in ICR mouse at 25 mg/kg, po measured upto 24 hrs by LC-MS/MS analysis; format: ADME, organism-based; conditions: in vivo
SU-DHL-2 = test: Antiproliferative activity against human SUDHL2 cells incubated for 72 hrs by luminescence assay; format: functional, cell-based; conditions: SU-DHL-2, 72 h
[14] = Metabolic stability in mouse liver microsomes assessed as half life measured for 75 to 130 mins by LC-MS/MS analysis; format: ADME, Microsome; conditions: time 75-130 min
Rec1 = test: Antiproliferative activity against human REC1 cells incubated for 72 hrs by luminescence assay; format: functional, cell-based; conditions: Rec1, 72 h
NCI-H441 = test: Antiproliferative activity against human NCI-H441 cells incubated for 72 hrs by luminescence assay; format: functional, cell-based; conditions: NCI-H441, 72 h
[15] = Half life in ICR mouse at 25 mg/kg, po measured upto 24 hrs by LC-MS/MS analysis; format: ADME, organism-based; conditions: in vivo
MOLT-4 = test: Antiproliferative activity against human MOLT-4 cells incubated for 72 hrs by luminescence assay; format: functional, cell-based; conditions: MOLT-4, 72 h

SMILES: Nc1cc(F)ccc1NC(=O)c1ccc(CN2CCC/C(=C\c3ccco3)C2=O)cc1
pIC50 (Histone deacetylase 1): 5.92

SMILES: Nc1cc(Br)ccc1NC(=O)c1ccc(CN2CCC/C(=C\c3ccc(Cl)cc3)C2=O)cc1
pIC50 (Histone deacetylase 1): < 5.00

SMILES: Cc1ccccc1/C=C1\CCCN(Cc2ccc(C(=O)Nc3ccc(F)cc3N)cc2)C1=O
pIC50 (Histone deacetylase 1): 5.61

SMILES: Cc1ccc(NC(=O)c2ccc(CN3CCC/C(=C\c4ccc(Cl)cc4)C3=O)cc2)c(N)c1
pIC50 (Histone deacetylase 1): < 5.00

SMILES: Nc1cc(F)ccc1NC(=O)c1ccc(CN2CCC/C(=C\c3ccccc3)C2=O)cc1
pIC50 (Histone deacetylase 1): 5.66

SMILES: Nc1cc(F)ccc1NC(=O)c1ccc(CN2CCC/C(=C\c3ccncc3)C2=O)cc1
pIC50 (Histone deacetylase 1): 5.60

SMILES: Nc1cc(F)ccc1NC(=O)c1ccc(CN2CCC/C(=C\c3ccccn3)C2=O)cc1
pIC50 (Histone deacetylase 1): 5.87

SMILES: Nc1cc(F)ccc1NC(=O)c1ccc(CN2CCC/C(=C\c3cccnc3)C2=O)cc1
pIC50 (Histone deacetylase 1): 5.63

SMILES: Nc1cc(F)ccc1NC(=O)c1ccc(CN2CCC/C(=C\c3ccc(F)cc3)C2=O)cc1
pIC50 (Histone deacetylase 1): 5.58

SMILES: Nc1cc(F)ccc1NC(=O)c1ccc(CN2CCC/C(=C\c3cccc(Cl)c3)C2=O)cc1
pIC50 (Histone deacetylase 1): 5.71

SMILES: Nc1cc(F)ccc1NC(=O)c1ccc(CNC(=O)/C=C/c2cccnc2)cc1 [TUCIDINOSTAT]
pIC50 (786-0): 6.20
pIC50 (TMD8 [6]): 6.32
t1/2 [1]: 6.27 h
Intrinsic clearance in human liver microsomes [2]: 1.7 µL/min/mg
Activity (A549 [3]): 96.6%
pIC50 (HT-29): 5.22
Activity (HCT-116): 102.26%
pIC50 (MDA-MB-231 [7]): 5.02
bioavailability [8]: 20.8%
AUC(0-inf) [9]: 1350 ng·h/mL
Activity (TMD8 [4]): 5.96%
Cmax [10]: 1220 ng/mL
pIC50 (CCRF-CEM): 6.08
pIC50 (SK-OV-3): 5.07
AUC(0-inf) [11]: 3520 ng·h/mL
Activity (MDA-MB-231 [5]): 69.91%
pIC50 (CWR22R): 5.97
pIC50 (NCI-H460): 5.63
pIC50 (COLO-678): < 5.00
pIC50 (RS4-11): 6.22
pIC50 (A549 [12]): 5.55
pIC50 (DOHH-2): 6.28
pIC50 (HuT78): 5.62
MRT [13]: 4.2 h
pIC50 (SU-DHL-2): 6.25
half-life [14]: 1.3 h
pIC50 (Rec1): 6.00
pIC50 (NCI-H441): 5.58
half-life [15]: 4 h
pIC50 (MOLT-4): 6.12

SMILES: Nc1cc(F)ccc1NC(=O)c1ccc(CN2CCC/C(=C\c3ccc(Br)cc3)C2=O)cc1
pIC50 (Histone deacetylase 1): 5.71

SMILES: Nc1ccccc1NC(=O)c1ccc(CN2CCC/C(=C\c3ccc(Cl)c(C(F)(F)F)c3)C2=O)cc1
pIC50 (Histone deacetylase 1): 5.83

The next lines start with results.

pIC50 (Histone deacetylase 1): 6.03
SMILES: Cc1cccc(/C=C2\CCCN(Cc3ccc(C(=O)Nc4ccc(F)cc4N)cc3)C2=O)c1

pIC50 (Histone deacetylase 1): 5.92
SMILES: Nc1cc(F)ccc1NC(=O)c1ccc(CN2CCC/C(=C\c3ccc4ccccc4c3)C2=O)cc1

half-life [1]: 7.78 h
microsomal CLint [2]: 2.96 µL/min/mg
pIC50 (Histone deacetylase 1): 6.57
SMILES: Nc1ccccc1NC(=O)c1ccc(CN2CCC/C(=C\c3ccncc3)C2=O)cc1
Activity (A549 [3]): 98.64%
Activity (HCT-116): 66.57%
Activity (TMD8 [4]): 26.34%
Activity (MDA-MB-231 [5]): 77.05%

half-life [1]: 2.48 h
microsomal CLint [2]: 9.3 µL/min/mg
pIC50 (Histone deacetylase 1): 6.40
SMILES: Nc1ccccc1NC(=O)c1ccc(CN2CCC/C(=C\c3ccccc3Cl)C2=O)cc1

pIC50 (Histone deacetylase 1): 6.16
SMILES: Nc1ccccc1NC(=O)c1ccc(CN2CCC/C(=C\c3ccc4ccccc4c3)C2=O)cc1

half-life [1]: 2.42 h
microsomal CLint [2]: 9.57 µL/min/mg
pIC50 (Histone deacetylase 1): 6.31
SMILES: Nc1ccccc1NC(=O)c1ccc(CN2CCC/C(=C\c3ccc(Cl)cc3)C2=O)cc1

half-life [1]: 2.1 h
microsomal CLint [2]: 11 µL/min/mg
pIC50 (Histone deacetylase 1): 6.71
SMILES: Nc1ccccc1NC(=O)c1ccc(CN2CCC/C(=C\c3ccccc3)C2=O)cc1

half-life [1]: 5.18 h
microsomal CLint [2]: 4.45 µL/min/mg
pIC50 (Histone deacetylase 1): 6.52
SMILES: Nc1ccccc1NC(=O)c1ccc(CN2CCC/C(=C\c3ccco3)C2=O)cc1
Activity (A549 [3]): 61.8%
Activity (HCT-116): 44.43%
Activity (TMD8 [4]): 5.48%
Activity (MDA-MB-231 [5]): 53.88%

t1/2 [1]: 15.6 h
Intrinsic clearance in human liver microsomes [2]: 10.2 µL/min/mg
pIC50 (Histone deacetylase 1): 6.06
SMILES: Nc1cc(F)ccc1NC(=O)c1ccc(CN2CC/C(=C\c3ccccn3)C2=O)cc1
Activity (A549 [3]): 93.24%
Activity (HCT-116): 121.48%
Activity (TMD8 [4]): 29.75%
Activity (MDA-MB-231 [5]): 83.37%

half-life [1]: 2.1 h
microsomal CLint [2]: 11.3 µL/min/mg
pIC50 (Histone deacetylase 1): 6.37
SMILES: Nc1cc(F)ccc1NC(=O)c1ccc(CN2CC/C(=C\c3ccccc3)C2=O)cc1

pIC50 (Histone deacetylase 1): 6.24
SMILES: Nc1ccccc1NC(=O)c1ccc(CN2CCC/C(=C\c3ccc(Cl)c(F)c3)C2=O)cc1

pIC50 (Histone deacetylase 1): 6.10
SMILES: Cc1ccc(/C=C2\CCCN(Cc3ccc(C(=O)Nc4ccc(F)cc4N)cc3)C2=O)cc1

pIC50 (Histone deacetylase 1): 6.21
SMILES: Nc1cc(F)ccc1NC(=O)c1ccc(CN2CCC/C(=C\c3ccc(Cl)cc3)C2=O)cc1

pIC50 (Histone deacetylase 1): 5.96
SMILES: Nc1cc(F)ccc1NC(=O)c1ccc(CN2CCC/C(=C\c3ccccc3Cl)C2=O)cc1

pIC50 (Histone deacetylase 1): 6.20
SMILES: Nc1ccccc1NC(=O)c1ccc(CN2CCC/C(=C\c3cccc(Cl)c3)C2=O)cc1

half-life [1]: 4.6 h
microsomal CLint [2]: 5.02 µL/min/mg
pIC50 (Histone deacetylase 1): 6.66
SMILES: Nc1ccccc1NC(=O)c1ccc(CN2CCC/C(=C\c3cccnc3)C2=O)cc1
Activity (A549 [3]): 72.41%
Activity (HCT-116): 57.19%
Activity (TMD8 [4]): 23.83%
Activity (MDA-MB-231 [5]): 58.3%

pIC50 (Histone deacetylase 1): 6.04
SMILES: COc1ccc(/C=C2\CCCN(Cc3ccc(C(=O)Nc4ccc(F)cc4N)cc3)C2=O)cc1

pIC50 (Histone deacetylase 1): 7.09
SMILES: Nc1ccccc1NC(=O)c1ccc(CN2CC/C(=C\c3ccccn3)C2=O)cc1
Activity (A549 [3]): 74.98%
Activity (HCT-116): 56.41%
Activity (TMD8 [4]): 15.5%
Activity (MDA-MB-231 [5]): 60.99%
